Results on 1 compound are retold here after publication PMC7004565, “Nucleotide inhibition of the pancreatic ATP-sensitive K^+ channel explored with patch-clamp fluorometry” (eLife, 2020).

Molecules are shown by their SMILES. Read-outs that look alike come from different tables or passages of the source.

In assay [1] the target is T1, Kir6.2*,C166S-GFP + SUR1 (Homo sapiens, UniProt Q14654, C166S). Put plainly: ANAP fluorescence quenching in excised patches (patch-clamp fluorometry). Further details: ANAP labelling is specific and only full-length Kir6.2 is expressed at the cell membrane; expressed in transfected cells; host or cells: HEK-293T. The following applies: excised patches (PCF), Hill fit. In kind it is binding. The protocol:
Currents were measured as described above.
ANAP bleaching was corrected as for the unroofed binding experiments with Equation 1 (Figure 2—figure supplement 3A). Due to the lower signal-to-noise ratio for PCF compared to the unroofed membranes, we performed experiments from both high-to-low and low-to-high TNP-ATP concentrations to minimise artifacts from our bleaching corrections.

The target of assay [2] is T1, Kir6.2*,C166S-GFP + SUR1. Kind of assay: Bayesian MWC-type model fits to combined patch-clamp fluorometry data. Further details: ANAP labelling is specific and only full-length Kir6.2 is expressed at the cell membrane; expressed in transfected cells; host or cells: HEK-293T. In kind it is biochemical. The following applies: for Kd: read-out: KA (intrinsic binding affinity to the closed state) (converted). From the text:
Our simultaneous binding and current measurements were well fit with a Monod-Wyman-Changeux (MWC)-type model (Figure 2D,E; [Monod et al., 1965]) which has been previously proposed to explain KATP channel inhibition ([Enkvetchakul and Nichols, 2003]; [Craig et al., 2008]; [Vedovato et al., 2015]). In our MWC-type model, each ligand binding event ( KA ) is independent and each bound ligand favours the closed state by the same factor ( D ). Simultaneous measurement of binding (fluorescence) and gating (current) allowed us to obtain well constrained fits to our model. To obtain free parameter ( L , KA , D ) estimates and verify that each parameter was well and uniquely determined, we employed a Bayesian Markov chain Monte Carlo (MCMC) method previously employed by [Hines et al. (2014)]. Using this approach, we constructed posterior probability distributions for the free parameters of our MWC-type model (Figure 2F, Table 3). […] Our estimate of L was quite low and broadly distributed. We repeated our fits with L fixed to a value consistent with previous single channel measurements (0.8, Popen=0.45; [John et al., 1998]; [Enkvetchakul et al., 2000]; [Ribalet et al., 2006]). This had only a very small effect on our estimates of D and KA (Figure 2—figure supplement 1). The broad distribution of L in our fit may represent current rundown which occurs during our patch-clamp recordings and is expected to affect the open-closed equilibrium.
In addition to the full MWC-type model we considered alternate models (Figure 2—figure supplement 2). These included a model in which only the first binding event influences the open-closed equilibrium of the channel (single-binding model; Figure 2—figure supplement 2B, Table 3), and an MWC-style model with an additional parameter C to allow for direct negative cooperativity between binding sites (negative cooperativity model; Figure 2—figure supplement 2C, Table 3). The single-binding model yielded very similar parameter estimates to our full MWC-type model (Figure 2—figure supplement 2D, Table 3). This is a consequence of D being so low that even in the MWC-type model most channels are closed when only a single nucleotide is bound. The cooperative model improved our fits, but not enough to justify the inclusion of an additional free parameter (see Discussion).
The MWC-type models considered (Figure 2 and Figure 2—figure supplement 2) were formulated as follows:(3) F/Fmax=KA[TNPATP](1+KA[TNPATP])^3+LDKA[TNPATP](1+DKA[TNPATP])^3/(1+KA[TNPATP])^4+L(1+DKA[TNPATP])^4 (4) open channels/total channels=L(1+DKA[TNPATP])^4/(1+KA[TNPATP])^4+L(1+DKA[TNPATP])^4
The first was similar to the MWC-type model, except that the channels close after one molecule of TNP-ATP binding with subsequent binding events having no effect.(7) F/Fmax=LDKA[TNPATP](1+3KA[TNPATP]+3KA2[TNPATP]^2+KA3[TNPATP]^3)+KA[TNPATP](1+KA[TNPATP])^3/L(1+4DKA[TNPATP]+6DKA2[TNPATP]^2+4DKA3[TNPATP]^3+DKA4[TNPATP]^4)+(1+KA[TNPATP])^4 (8) I/Imax=L(1+4DKA[TNPATP]+6DKA2[TNPATP]^2+4DKA3[TNPATP]^3+DKA4[TNPATP]^4)/L(1+4DKA[TNPATP]+6DKA2[TNPATP]^2+4DKA3[TNPATP]^3+DKA4[TNPATP]^4)+(1+KA[TNPATP])^4⋅1+L/L
The second alternate model was the same as the full MWC model, but with an additional term C describing binding cooperativity between Kir6.2 subunits.(9) F/Fmax=LDKA[TNPATP](1+3CDKA[TNPATP]+3C^2D^2KA2[TNPATP]^2+C^3D^3KA3[TNPATP]^3)+KA[TNPATP](1+3CKA[TNPATP])+3C^2KA2[TNPATP]^2+C^3KA3[TNPATP]^3)/L(1+4DKA[TNPATP]+6CD^2KA2[TNPATP]^2+4C^2D^3KA3[TNPATP]^3+C^3D^4KA4[TNPATP]^4)+1+4KA[TNPATP]+6CKA2[TNPATP]^2+4C^2KA3[TNPATP]^3+C^3KA4[TNPATP]^4 (10) I/Imax=L(1+4DKA[TNPATP]+6CD^2KA2[TNPATP]^2+4C^2D^3KA3[TNPATP]^3+C^3D^4KA4[TNPATP]^4)/L(1+4DKA[TNPATP]+6CD^2KA2[TNPATP]^2+4C^2D^3KA3[TNPATP]^3+C^3D^4KA4[TNPATP]^4)+1+4KA[TNPATP]+6C^2KA2[TNPATP]^2+4C^2KA3[TNPATP]^3+C^3KA4[TNPATP]^4⋅1+L/L […]
(The patch-clamp technique gives a direct electrical read-out from membranes.)

Where [3] appears, read: Full MWC model, median estimate.
The mark [4] stands for this setting: Single-site (single-binding) model.

T1 sequence (Q14654 whole entry C166S): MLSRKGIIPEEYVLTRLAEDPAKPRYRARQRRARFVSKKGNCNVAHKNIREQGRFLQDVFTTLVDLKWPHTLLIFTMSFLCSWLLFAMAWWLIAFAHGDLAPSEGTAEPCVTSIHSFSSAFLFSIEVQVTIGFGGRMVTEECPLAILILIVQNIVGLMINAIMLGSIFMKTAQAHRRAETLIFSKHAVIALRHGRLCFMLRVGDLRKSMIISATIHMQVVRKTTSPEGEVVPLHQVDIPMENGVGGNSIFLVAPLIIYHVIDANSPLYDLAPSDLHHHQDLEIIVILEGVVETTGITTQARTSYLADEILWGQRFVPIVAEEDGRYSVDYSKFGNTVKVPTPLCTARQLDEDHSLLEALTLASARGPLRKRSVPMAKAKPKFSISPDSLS
T1 sequence (Q09428 whole entry partner): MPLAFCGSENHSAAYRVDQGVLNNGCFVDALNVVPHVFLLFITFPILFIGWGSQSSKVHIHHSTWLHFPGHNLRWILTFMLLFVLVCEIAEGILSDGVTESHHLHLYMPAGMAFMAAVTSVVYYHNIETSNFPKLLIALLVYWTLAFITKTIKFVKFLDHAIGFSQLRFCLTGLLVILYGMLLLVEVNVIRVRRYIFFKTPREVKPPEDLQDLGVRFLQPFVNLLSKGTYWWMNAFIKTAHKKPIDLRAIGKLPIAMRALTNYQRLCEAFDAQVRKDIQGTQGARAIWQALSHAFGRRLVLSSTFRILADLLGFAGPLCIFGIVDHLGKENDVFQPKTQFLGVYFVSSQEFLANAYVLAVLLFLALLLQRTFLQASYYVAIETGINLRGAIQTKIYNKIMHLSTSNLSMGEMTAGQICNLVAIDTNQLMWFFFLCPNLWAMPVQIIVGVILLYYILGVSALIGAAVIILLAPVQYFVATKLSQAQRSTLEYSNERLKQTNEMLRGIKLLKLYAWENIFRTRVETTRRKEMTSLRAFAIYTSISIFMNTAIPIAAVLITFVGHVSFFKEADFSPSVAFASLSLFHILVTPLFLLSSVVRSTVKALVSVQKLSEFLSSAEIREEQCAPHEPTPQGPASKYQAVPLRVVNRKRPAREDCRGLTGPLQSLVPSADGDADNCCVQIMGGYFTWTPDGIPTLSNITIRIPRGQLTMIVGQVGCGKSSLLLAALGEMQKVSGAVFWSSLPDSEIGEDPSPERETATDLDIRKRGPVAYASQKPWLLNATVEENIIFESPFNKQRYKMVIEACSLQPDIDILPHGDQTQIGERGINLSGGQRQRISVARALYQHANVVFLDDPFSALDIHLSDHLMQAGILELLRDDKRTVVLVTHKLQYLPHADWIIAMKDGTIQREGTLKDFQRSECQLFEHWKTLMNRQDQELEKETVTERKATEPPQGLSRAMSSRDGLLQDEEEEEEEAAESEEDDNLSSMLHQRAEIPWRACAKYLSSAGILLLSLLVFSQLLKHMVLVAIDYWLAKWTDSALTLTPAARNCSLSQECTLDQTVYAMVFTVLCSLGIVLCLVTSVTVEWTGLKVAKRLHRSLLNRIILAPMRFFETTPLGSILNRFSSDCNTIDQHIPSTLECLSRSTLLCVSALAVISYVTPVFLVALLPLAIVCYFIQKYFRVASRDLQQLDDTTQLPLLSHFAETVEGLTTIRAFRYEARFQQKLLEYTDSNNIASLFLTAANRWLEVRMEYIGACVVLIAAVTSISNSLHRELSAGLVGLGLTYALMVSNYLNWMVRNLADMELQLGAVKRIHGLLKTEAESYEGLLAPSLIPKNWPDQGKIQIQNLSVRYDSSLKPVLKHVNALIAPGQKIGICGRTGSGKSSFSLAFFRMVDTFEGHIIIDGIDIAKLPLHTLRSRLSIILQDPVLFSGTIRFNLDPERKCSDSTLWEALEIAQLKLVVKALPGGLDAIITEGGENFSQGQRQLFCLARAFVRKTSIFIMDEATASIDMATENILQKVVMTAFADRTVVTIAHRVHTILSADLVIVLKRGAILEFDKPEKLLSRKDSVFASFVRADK

The Emax is the size of the effect at its maximum, as opposed to the concentration needed. As a reminder, the EC50 is the concentration needed to bring the measured effect to its halfway point. With `Nc1ncnc2c1ncn2[C@@H]1O[C@H](COP(=O)(O)OP(=O)(O)OP(=O)(O)O)[C@H]2OC3(O[C@H]21)C([N+](=O)[O-])=CC(=[N+]([O-])[O-])C=C3[N+](=O)[O-]` (stereo partly shown) [TNP-ATP, trinitrophenyl-ATP], at Kir6.2*,C166S-GFP + SUR1 [1], the “h (Hill coefficient) fluorescence quenching” value is given as 0.84. The Emax on Kir6.2*,C166S-GFP + SUR1 [1] (fraction) is 100%. For the same compound, the EC50 at Kir6.2*,C166S-GFP + SUR1 [1] (n = 6) came out at 67.6 µM. For the same compound, at Kir6.2*,C166S-GFP + SUR1 [2] (setting [3]), the “D (factor by which nucleotide binding favours channel closure)” value is on record as 0.84, the “L (unliganded open-closed equilibrium constant)” value is reported as 0.29 log10 and the Kd is 66.1 µM. At Kir6.2*,C166S-GFP + SUR1 [2] (Negative cooperativity model), the “C (binding cooperativity between Kir6.2 subunits)” value is given as 0.52, the “D (factor by which nucleotide binding favours channel closure)” value was determined as 0.83, the “L (unliganded open-closed equilibrium constant)” value turned out to be 0.32 log10 and the Kd is 37.2 µM. At Kir6.2*,C166S-GFP + SUR1 [2] (setting [4]), the “D (factor by which nucleotide binding favours channel closure)” value was found to be 0.70, the “L (unliganded open-closed equilibrium constant)” value is recorded as 0.09 log10 and the Kd is 70.8 µM.
